In patent publication EP0386611A2, “Amino acid derivatives” (F. HOFFMANN-LA ROCHE AG, priority 1989, dated 1990):
Read-outs that look alike come from different tables or passages of the source.

How the values were obtained:
[1] = molecular target: T1, HIV protease (Human immunodeficiency virus type 1 group M subtype B, UniProt P04585); assay: In vitro inhibition of HIV protease (spectrophotometric assay of N-terminal proline from cleavage of substrate S¹ or S²); format: biochemical; details: citrate buffer pH 5.5, 37°C
T1 construct: HIV protease was expressed in E. coli and partially purified from soluble extracts; made in house; host or cells: E. coli
Description: HIV protease was expressed in E. coli and partially purified from soluble extracts of the bacterium by ammonium sulphate fractionation (0-30%). Protease activity was assayed using as the substrate the protected hexapeptide succinyl-Ser-Leu-Asn-Tyr-Pro-Ile isobutylamide (S¹) or the protected heptapeptide succinyl-Val-Ser-Gln-Asn-Phe-Pro-Ile isobutylamide (S²). Cleavage of the substrate was quantified by measuring the production of H-Pro-Ile isobutylamide by the spectrophotometric assay of N-terminal proline.
1.25 mM of substrate S¹ or 0.68 mM of substrate S² were dissolved in 125 mM of citrate buffer (pH 5.5) containing 0.125 mg/ml of Tween 20. 10 µl of a solution of various concentrations of the test compound (dissolved in methanol or dimethyl sulphoxide and diluted with water containing 0.1% Tween 20) and 10 µl of protease were added to 80 µl of the respective buffered substrate. Digestion was carried out at 37°C for a fixed period of time and was terminated by the addition of 1 ml of colour reagent [30 µg/ml of isatin and 1.5 mg/ml of 2-(4-chlorobenzoyl)benzoic acid in 10% acetone in ethanol (vol./vol.)]. The solution was heated in a boiling water bath for 15 minutes and then the pigmented residues were re-dissolved in 1 ml of 1% pyrogallol in 33% water in acetone (wt./vol./vol.). The optical density of the solution was measured spectrophotometrically at 599 nm. The formation of H-Pro-Ile isobutylamide in the presence of the test compound was compared with controls and the concentration of test compound required to give 50% inhibition (IC₅₀) was determined by means of a graph plotted from the various concentrations of test compound used.
In the above test the determination of the IC₅₀ values for potent inhibitors is limited by mutual depletion. In this respect, substrate S² is more sensitive than substrate S¹ and this allows reduced protease concentrations to be used, which results in lower IC₅₀ values. This will be seen from the results presented in the Table hereinafter where in turn the 2nd run with substrate S² was carried out using a lower protease concentration than in the 1st run which results again in lower IC₅₀ values.

[2] = test system: HTLV-III (strain RF); assay: In vitro antiviral activity: HTLV-III (strain RF) in C8166 cells, p24 antigen capture assay; format: cell-based; details: Human immunodeficiency virus 1; concentration that produces 50% protection; C8166 cells infected with ten times the TCD₅₀, 72 hours at 37°C, viral protein 24 antigen capture; read-out: IC₅₀ Activity against HIV
Description: This assay uses HTLV-III (strain RF) grown in C8166 cells (a human CD4⁺ T lymphoblastoid line) using RPM1 1640 medium with bicarbonate buffer, antibiotics and 10% foetal bovine serum.
A suspension of cells is infected with ten times the TCD₅₀ of virus and adsorption allowed to proceed for 90 minutes at 37°C. The cells are washed three times with medium. The test is carried out in 6 ml tissue culture tubes, each tube containing 2 x 10⁵ infected cells in 1.5 ml of medium. Test compounds are dissolved in either aqueous medium or dimethyl sulphoxide, according to solubility, and a 15 µl solution of the compound added. The cultures are incubated at 37°C for 72 hours in a humidified atmosphere containing 5% carbon dioxide in air. The cultures are then centrifuged and an aliquot of the supernatant solubilized with Nonidet P40 and subjected to an antigen capture assay which uses a primary antiserum with particular reactivity against the viral protein 24 and a horseradish peroxidase detection system. Colour generation is measured spectrophotometrically and plotted against the concentration of test compound. The concentration that produces 50% protection is determined (IC₅₀).

[3] = substrate S² (succinyl-Val-Ser-Gln-Asn-Phe-Pro-Ile isobutylamide), 0.68 mM, 1st run, read-out: IC₅₀ Inhibition of HIV protease S² 1st run
[4] = substrate S², 0.68 mM, 2nd run, lower protease concentration than in the 1st run, read-out: IC₅₀ Inhibition of HIV protease S² 2nd run
[5] = substrate S¹ (succinyl-Ser-Leu-Asn-Tyr-Pro-Ile isobutylamide), 1.25 mM, read-out: IC₅₀ Inhibition of HIV protease S¹

| SMILES | IC50 [1, 3] [nM] | IC50 [1, 4] [nM] | IC50 [1, 5] [nM] | IC50 [2] [nM] |
| --- | --- | --- | --- | --- |
| CC[C@H](C)[C@H](NC(=O)[C@@H](C[C@H](O)[C@H](CC1CCCCC1)NC(=O)OC(C)(C)C)C(C)C)C(=O)N[C@@H](Cc1ccccc1)C(=O)OC [Compound B, N-[N-[5(S)-(tert.Butoxyformamido)-6-cyclohexyl-4(S)-hydroxy-2(S)-isopropylhexanoyl]-L-isoleucyl]-L-phenylalanine methyl ester] | 3.4 | 0.48 | 20 |  |
| CC[C@H](C)[C@H](NC(=O)[C@@H](C[C@H](O)[C@H](CC1CCCCC1)NC(=O)OC(C)(C)C)C(C)C)C(=O)NCCN1CCN(C(=O)OCc2ccccc2)CC1 [Compound L, N¹-[2-[4-(Benzyloxycarbonyl)-1-piperazinyl]ethyl]-N²-[5(S)-(tert.butoxyformamido)-6-cyclohexyl-4(S)-hydroxy-2(S)-isopropylhexanoyl]-L-isoleucineamide] |  | 2.7 |  | 5 |
| CC[C@H](C)[C@H](NC(=O)[C@@H](C[C@H](O)[C@H](Cc1ccccc1)NC(=O)OC(C)(C)C)C(C)C)C(=O)NCCc1ccccc1 [Compound G, N²-[5(S)-(tert.Butoxyformamido)-4(S)-hydroxy-2(S)-isopropyl-6-phenylhexanoyl]-N¹-phenethyl-L-isoleucinamide] | 4.1 | 0.89 | 32 | 100 |
| CC[C@H](C)[C@H](NC(=O)[C@@H](C[C@H](O)[C@H](CC1CCCCC1)NC(=O)OC(C)(C)C)C(C)C)C(=O)NCCc1ccccc1 [Compound A, N²-[5(S)-(tert.Butoxyformamido)-6-cyclohexyl-4(S)-hydroxy-2(S)-isopropylhexanoyl]-N¹-phenethyl-L-isoleucinamide] | 4.5 | 0.62 | 12 | 100 |
| CC[C@H](C)[C@H](NC(=O)[C@@H](C[C@H](O)[C@H](CC1CCCCC1)NC(=O)[C@H](CC#N)NC(=O)OCc1ccccc1)C(C)C)C(=O)NCCc1ccccc1 [Compound K, N²-[5(S)-[[N-(Benzyloxycarbonyl)-β-cyano-L-alanyl]amino]-6-cyclohexyl-4(S)-hydroxy-2(S)-isopropylhexanoyl]-N¹-phenethyl-L-isoleucinamide] |  | 1.6 |  | 4 |
| CC[C@H](C)[C@H](NC(=O)[C@@H](C[C@H](O)[C@H](CC1CCCCC1)NC(=O)CC(C)(C)C)C(C)C)C(=O)NCCc1ccccc1 [Compound J, N²-[5(S)-(tert.Butylacetamido)-6-cyclohexyl-4(S)-hydroxy-2(S)-isopropylhexanoyl]-N¹-phenethyl-L-isoleucinamide] | 7.7 |  |  | 100 |
| CC[C@H](C)[C@H](NC(=O)[C@@H](C[C@H](O)[C@H](CC1CCCCC1)NC(=O)OC(C)(C)C)C(C)C)C(=O)NCc1ccccc1 [Compound C, N²-[5(S)-(tert.Butoxyformamido)-6-cyclohexyl-4(S)-hydroxy-2(S)-isopropylhexanoyl]-N¹-benzyl-L-isoleucinamide] | 3.3 |  | 15 | 7 |
| CC[C@H](C)[C@H](NC(=O)[C@@H](C[C@H](O)[C@H](CC1CCCCC1)NC(=O)OC(C)(C)C)C(C)C)C(=O)NC1Cc2ccccc2C1 [Compound E, N²-[5(S)-(tert.Butoxyformamido)-6-cyclohexyl-4(S)-hydroxy-2(S)-isopropylhexanoyl]-N¹-(2-indanyl)-L-isoleucinamide] | 4.3 | 2.2 |  | 70 |
| CC[C@H](C)[C@H](NC(=O)[C@@H](C[C@H](O)[C@H](CC1CCCCC1)NC(=O)OC(C)(C)C)C(C)C)C(=O)NCCc1ccc(O)cc1 [Compound M, N²-[5(S)-(tert.Butoxyformamido)-6-cyclohexyl-4(S)-hydroxy-2(S)-isopropylhexanoyl]-N¹-[2-(4-hydroxyphenyl)ethyl]-L-isoleucinamide] |  | 3.7 |  | 10 |
| CC[C@H](C)[C@H](NC(=O)[C@@H](C[C@H](O)[C@H](CC1CCCCC1)NC(=O)[C@H](CC(N)=O)NC(=O)OCc1ccccc1)C(C)C)C(=O)NCCc1ccccc1 [Compound I, N²-[5(S)-[[N-(Benzyloxycarbonyl)-L-asparaginyl]amino]-6-cyclohexyl-4(S)-hydroxy-2(S)-isopropylhexanoyl]-N¹-phenethyl-L-isoleucinamide] | 2.5 | 0.39 | 80 | 9 |
| CC[C@H](C)[C@H](NC(=O)[C@@H](C[C@H](O)[C@H](CC1CCCCC1)NC(=O)OCc1ccccc1)C(C)C)C(=O)NCCc1ccccc1 [Compound H, N²-[5(S)-Benzyloxyformamido-6-cyclohexyl-4(S)-hydroxy-2(S)-isopropylhexanoyl]-N¹-phenethyl-L-isoleucinamide] | 3 | 0.91 | 22 | 60 |
| CC[C@H](C)[C@H](NC(=O)[C@H](C(C)C)[C@@H](O)[C@H](O)[C@H](CC1CCCCC1)NC(=O)OC(C)(C)C)C(=O)NCCN1CCN(C(=O)OCc2ccccc2)CC1 [Compound N, N¹-[2-[4-(Benzyloxycarbonyl)-1-piperazinyl]ethyl]-N²-[5(S)-(tert.butoxyformamido)-6-cyclohexyl-3(R),4(R)-dihydroxy-2(R)-isopropylhexanoyl]-L-isoleucinamide] |  | 4.1 |  | < 100 |
| CC[C@H](C)[C@H](NC(=O)[C@@H](C[C@H](O)[C@H](CC1CCCCC1)NC(=O)OC(C)(C)C)C(C)C)C(=O)NCCN1CCOCC1 [Compound F, N²-[5(S)-(tert.Butoxyformamido)-6-cyclohexyl-4(S)-hydroxy-2(S)-isopropylhexanoyl]-N¹-(2-morpholinoethyl)-L-isoleucinamide] | 4 | 1.9 |  | 100 |
| CC[C@H](C)[C@H](NC(=O)[C@@H](C[C@H](O)[C@H](CC1CCCCC1)NC(=O)OC(C)(C)C)C(C)C)C(=O)NCCc1ccccn1 [Compound D, N²-[5(S)-(tert.Butoxyformamido)-6-cyclohexyl-4(S)-hydroxy-2(S)-isopropylhexanoyl]-N¹-[2-(2-pyridyl)ethyl]-L-isoleucinamide] | 2.5 | 0.52 |  | 20 |
